Data taken from patent publication US20110059076A1, “HUMAN SERUM ALBUMIN LINKERS AND CONJUGATES THEREOF” (priority 2008, published 2011).
Several values for one entry are separate records, joined by “and”; a condition that tells them apart may be missing. Identical values can stand only once. Entries after “also recorded” stand apart in the source; their conditions may differ.

Legend:
[1] = test system: MDA-MB-361 (human breast adenocarcinoma) xenograft; assay: MDA-MB-361 xenograft model; type: in vivo, mice; details: MDA-MB-361, 30 mg/kg every 3 days
From the text: (§1) Calu-3 (human lung adenocarcinoma; FIG. 17A), SKOV-3 (human ovarian adenocarcinoma; FIG. 17B), NCI-N87 (human gastric carcinoma; FIG. 17C), ACHN (human kidney adenocarcinoma; FIG. 17D), and MDA-MB-361 (human breast adenocarcinoma; FIG. 17E) xenograft model are shown.

[2] = target: T1, recombinant extracellular domain of ErbB2 (Homo sapiens, UniProt P04626); assay: specificity competition ELISA on ErbB2-coated plates; details: half-maximal binding concentration of B2B3-1
T1 construct: Plates are coated with the recombinant extracellular domain of either ErbB2 or ErbB3
From the text: Plates are coated with the recombinant extracellular domain of either ErbB2 or ErbB3.

[3] = test system: AKT phosphorylation in ZR75-30 cells; assay: HRG-induced AKT phosphorylation ELISA in ZR75-30; type: cell-based, human; details: ZR75-30, dose titration 24 hours, 5 nM HRG 1β EGF domain 10 minutes
[4] = test system: pAKT in BT-474-M3 xenografts that have reduced PTEN activity; assay: pAKT Western blot of PTEN deficient BT-474-M3 xenograft tumors; type: in vivo; details: 30 mg/kg B2B3-1 every 3 days or 10 mg/kg trastuzumab weekly
From the text: Equal quantities of protein are loaded in each lane and total protein levels are controlled by probing for PCNA.

[5] = single dose pharmacokinetics in nu/nu mice; type: in vivo; details: for AUC / Clearance / T½β: Mouse (single dose)
Method: Blood is collected pre-dose and at 0.5, 4, 8, 24, 48, 72, and 120 hours post dose. Three mice are used for each time point. […] The HSA ELISA utilizes a polyclonal-anti HSA capture antibody and a HRP-conjugated polyclonal anti-HSA detection antibody.

[6] = test system: p27^kip1 in BT474-M3 breast tumor cells; assay: p27kip1 sub-cellular location by immunofluorescence; type: cell-based; details: 1 μM, 6 hours
Method: The sub-cellular location of p27^kip1 is assessed using immunofluorescence techniques.

[7] = test system: Cyclin D1 in BT-474-M3 cells; assay: Cyclin D1 Western blot; type: cell-based; details: 72 hours
From the text: The cytoskeleton protein vinculin is used as a protein loading control in this experiment.

ADRr-E2 xenografts = assay: ADRr-E2 (ErbB2 over-expressing) xenograft model; type: in vivo, nude mice; details: ADRr-E2, 30 mg/kg every 3 days
From the text: ErbB2 is over-expressed in ADRr breast cancer cells using a retroviral expression system. Transfected cells expressing high levels of ErbB2 (ADRr-E2) are selected using FACS and subsequently injected subcutaneously into nude mice to establish xenograft tumors.

[8] = test system: ErbB3 phosphorylation in ZR75-1 breast cancer cells; assay: agonistic activity: pErbB3 ELISA in ZR75-1 cells without HRG; type: cell-based; details: serum starved ZR75-1 cells, 1 μM, 24 hours, no HRG
Method: Except as noted, ELISA reagents for total and phospho-ErbB3 ELISAs are purchased from R&D Systems as DUOSET kits. 96-well NUNC MAXISORB plates are coated with 50 μl of an antibody and incubated overnight at room temperature. Next morning, plates are washed 3 times with 1000 μl/well in a BIOTEK plate washer with Dulbecco's phosphate buffered saline without calcium or magnesium (PBS) with added Tween detergent (PBST) (0.05% Tween-20). […] The plates are washed 3 times with 1000 μl/well in the BIOTEK plate washer with PBST. Cells are grown at 37° C. and 5% carbon dioxide, washed with cold PBS, then harvested with mammalian protein extract (MPER) lysis buffer (Pierce, 78505) to which 150 mM NaCl, 5 mM sodium pyrophosphate, 10 uM bpV (phen), 50uM phenylarsine, 1 mM sodium orthovanadate, and protease inhibitor cocktail (Sigma, P2714) is added. 50 μL of cell lysates and standards diluted in 50% Lysis buffer and 1% BSA are used in duplicates for further processing. Samples are incubated for 2hrs at 4° C. on a plate shaker and washed as before. About 50 μl of a detection antibody diluted in 2% BSA, PBST is added and incubated for about 1-2 hrs at room temperature. […] About 50 μL of SUPERSIGNAL ELISA Pico (Thermo Scientific) substrate is added and the plate is read using a FUSION plate reader. […]
Cells are lysed and the pErbB3 content of the lysates is assessed by ELISA generally as described above.

[9] = test system: MALME-3M melanoma cells (ErbB2 and ErbB3 receptors); assay: cell binding by flow cytometry, apparent binding affinity; details: MALME-3M cells
Method: Cell binding is assessed by flow cytometry and apparent binding affinities are determined for each molecule. Control cells are incubated with secondary antibody alone.

[10] = test system: p27^kip1 in BT474-M3 breast tumor xenografts; assay: p27kip1 staining of xenograft tumors; type: in vivo; details: 30 mg/kg every 3 days, 4 doses
[11] = test system: BT-474-M3 shPTEN xenografts; assay: BT-474-M3 shPTEN xenografts (reduced PTEN activity); type: in vivo, nude mice; details: 30 mg/kg B2B3-1 every 3 days or 10 mg/kg trastuzumab every week, i.p.
Method: ShRNA technology is applied to knock out the activity of the tumor suppressor gene phosphatase and tensin homolog (PTEN) in BT-474-M3 breast cancer cells. Briefly, cultured BT-474-M3 cells are transfected with shPTEN or shControl RNA by retroviral transfection. Transfected cells with reduced PTEN are selected using FACS and subsequently injected subcutaneously into the right flank of nude mice to establish xenograft tumors. Cells transfected with a control vector are injected into the left flank of the same mouse. […] All injections are done i.p.

[12] = test system: SKOV-3 (human ovarian adenocarcinoma) xenograft; assay: SKOV-3 xenograft model; type: in vivo, mice; details: SKOV-3, 30 mg/kg every 3 days
From the text: as §1

[13] = test system: CD31 in BT474-M3 breast cancer xenograft tumors; assay: CD31 staining (vessel density) of xenograft tumors; type: in vivo; details: 30 mg/kg every 3 days, 4 doses
From the text: Tumors are stained for the presence of vascular marker CD31.

[14] = test system: human BT-474-M3 xenografts; assay: dose response in BT-474-M3 breast cancer xenograft model; type: in vivo, nude mice; details: 0.3, 1, 3, 10, 30 or 90 mg/kg i.p. every 3 days, 12 doses
Method: All doses are administered interperitoneally (i.p.). Tumor size is measured twice a week and the corresponding tumor volume is calculated.

[15] = test system: pErbB3 and pAKT in BT-474-M3 cells; assay: Western blot of heregulin induced ErbB3 activity in BT-474-M3 cells; type: cell-based; details: BT-474-M3, 24 hours, 10 nM or 100 nM, with or without 5 nM HRG 1β EGF
From the text: Lysates are subjected to immunoblot analysis for ErbB3, pErbB3, AKT, and pAKT.

[16] = test system: ErbB3 phosphorylation in 9 tumor cell lines; assay: pErbB3 inhibition ELISA across 9 tumor cell lines versus ErbB2 expression; type: cell-based; details: 5×10^4 to 2.4×10^6 ErbB2 receptors/cell

With “B2B3-1: bispecific scFv antibody fusion: anti-ErbB3 scFv H3 and anti-ErbB2 scFv B1D2 joined by a modified human serum albumin (HSA) linker” the tumor size reduction [1] was “efficacious”, the “blocking of binding to ErbB2-coated plates by soluble extracellular domains of EGFR, ErbB2, ErbB3 or ErbB4” value [2] was “only soluble ErbB2 extracellular domain blocked; also recorded: binds specifically” and the “inhibition of HRG induced AKT phosphorylation” value [3] was “inhibits”. For the same substance, the “pAKT in tumors (densitometry of Western blot)” value [4] was “significantly less pAKT; also recorded: able to inhibit phosphorylation”, the AUC ([5]; 5 mg/kg IV) was 1.58E+03 hr-μg/ml and the Clearance ([5]; 5 mg/kg IV) was 3.19 mL/h/kg. The T½β ([5]; 5 mg/kg IV, 5 mg/kg) was 17 h and 16.9 h, the AUC ([5]; 15 mg/kg IV) was 6.10E+03 hr-μg/ml and the Clearance ([5]; 15 mg/kg IV) was 2.47 mL/h/kg. The T½β ([5]; 15 mg/kg IV, 15 mg/kg) was 16 h and 16.2 h, the AUC ([5]; 30 mg/kg IV) was 1.18E+04 hr-μg/ml and the Clearance ([5]; 30 mg/kg IV) was 2.54 mL/h/kg. The T½β ([5]; 30 mg/kg IV, 30 mg/kg) was 23 h and 22.6 h, the AUC ([5]; 45 mg/kg IV) was 1.84E+04 hr-μg/ml and the Clearance ([5]; 45 mg/kg IV) was 2.46 mL/h/kg. For the same substance, the T½β ([5]; 45 mg/kg IV, 45 mg/kg) was 18 h and 17.5 h, the dose-exposure relationship ([5]; nu/nu mice, 5, 15, 30 and 45 mg/kg bolus doses) was “linear increase in overall exposure” and the “sub-cellular location of p27^kip1” value [6] was “translocated to the nucleus; also recorded: translocation of cell cycle inhibitor p27^kip1 to the nucleus”. The “levels of Cyclin D1 compared to untreated cells” value [7] was “decrease”, the xenograft response (ADRr-E2 xenografts) was “responded; also recorded: responder” and the “levels of phosphorylated ErbB3 with B2B3-1 alone (agonistic activity)” value [8] was “comparable to the levels in untreated cells; also recorded: does not stimulate ErbB3 phosphorylation”. The “apparent binding affinity KD” value [9] was “significant increase in apparent binding affinity”, the “nuclear staining for p27^kip1 compared to HSA control tumors” value [10] was “Increased nuclear staining; also recorded: translocation of p27^kip1 to the nucleus” and the “size of tumors formed by BT-474-M3 cells lacking expression of PTEN” value [11] was “promoted a reduction”. The tumor size reduction [12] was “efficacious”, the “vessel density (CD31) compared to HSA treated tumors” value [13] was “marked decrease in vessel density; also recorded: reduction of vessel density” and the complete regressions [14] was “Complete regressions were observed in each of the B2B3-1 treatment groups except mice treated with the lowest dose”. The “tumor size compared to the control group” value [14] was “significant reduction”, the “inhibition of pAKT” value [15] was “in a ligand dependent manner” and the “inhibition of pErbB3” value [15] was “in a ligand dependent manner”. For the same substance, the “% pErbB3 inhibition in relation to ErbB2 expression levels” value [16] was “correlates positively”.
